# Reference: the NIST ThermoML archive (doi:10.1021/je050513r)
# Numbers after ± are expanded uncertainties.
# Experiment: refractive index (Na D-line) (dimensionless)
# Conditions: 293.1 K; 101.33 kPa; Liquid; Standard Abbe refractometry
row,refractive index,SMILES
1,1.4686 ± 0.0007,CN1CCCC1=O [N-methylpyrrolidone]
2,1.4344 ± 0.0007,CCCCCCCCCCCCCCCC [hexadecane]

row,SMILES,refractive index
1,"Cc1cc(C)cc(C)c1 [1,3,5-trimethylbenzene]",1.4992 ± 0.0007
